Consider 80 molecules from the METLIN SMRT retention time set (Domingo-Almenara et al. 2019).

The nature of the series: gradient 5% acetonitrile 3 min, to 50% in 2 min, to 85% in 15 min, held 3 min, 100 µL/min. The settings on record: column: Zorbax Extend-C18 2.1 x 50 mm; eluents: water / acetonitrile, 0.1% formic acid. Put shortly: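 Retention times of pure standards were taken from adduct peaks that were selected by computer and manually inspected. Over 3 months, mixtures of ~100 molecules were run by HPLC–quadrupole time-of-flight mass spectrometry in positive and negative ionization mode. The Zorbax Extend-C18 column (2.1 × 50 mm, 1.8 μm) ran at 100 μL/min in water and acetonitrile, each containing 0.1% formic acid, with 40 μL dead volume and 900 μL dwell volume.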
`O=C(Nc1ccc(-c2nc(-c3ccccc3)no2)cc1)c1ccc(Br)o1` yielded an RP-LC retention time of 1180 s.

In turn, `Cn1nc(N2CCC(NC(=O)c3ccsc3)C2)ccc1=O` (stereo not given) displayed an RP-LC retention time of 640 s.

In turn, `Brc1ccc(-c2ccc(CNCC3CCNCC3)o2)cc1` returned an RP-LC retention time of 597 s.

In the case of `COCc1nc(CCNC(=O)C2CCC2)no1`, the RP-LC retention time came to 609 s.

`CC(C)(C)n1nnnc1C1CC2(CCOCC2)C(=O)N1CCc1c[nH]c2ccccc12` (stereo not given) displayed an RP-LC retention time of 770 s.

For `COC(=O)c1ccc(N2C=C(C#N)S(=O)(=O)c3c(F)cccc32)cc1`, the RP-LC retention time came out at 858 s.

As to `NC(=O)c1cc(-c2ccccc2F)nc2ccccc12`, the RP-LC retention time is 740 s.

In the case of `COCCCNC(=O)c1ccc2c(c1)nc(C)n2-c1ccc(Br)cc1`, the RP-LC retention time turned out to be 629 s.

The molecule `CC(C)C(=O)N1CCc2cc(-c3ccc(C(=O)N4CCN(C(=O)c5ccco5)CC4)cc3)ccc21` gave an RP-LC retention time of 830 s.

In turn, `Cn1nc(CN2CCCC2)c2c1CCN(S(=O)(=O)c1ccc(F)cc1F)C2` registered an RP-LC retention time of 622 s.

`Cc1cc(C)cc(NS(=O)(=O)c2c[nH]c3ncccc23)c1`: the RP-LC retention time was 758 s.

Take `CCN1C(=O)COc2ccc(-c3noc(-c4ccccc4C(F)(F)F)n3)cc21`: the RP-LC retention time is 1140 s.

As for `COc1ccc(-c2cc(C(=O)NCCc3c[nH]c4ccccc34)[nH]n2)cc1`, the RP-LC retention time was 814 s.

With `O=C(NCc1ccccn1)C1CCN(C(=O)c2ncn3c2COC(c2ccc(F)cc2)C3)CC1` (stereo not given), the RP-LC retention time came to 622 s.

For `CC1CCN(C(=O)c2ccc(OCC3CCCN(C(=O)C4CCCO4)C3)cc2)CC1` (stereo not given), the RP-LC retention time was determined as 829 s.

Turning to `COc1ccc(CNC(=O)N2CCC(n3c(-c4ccco4)nc4cccnc43)C2)cc1` (stereo not given), the RP-LC retention time was 759 s.

As for `CCN1c2cc(Cl)ccc2C(=O)NC12CCN(C(=O)NCc1ccccc1)CC2`, the RP-LC retention time came out at 757 s.

Molecule `C=CCNC(=O)C1CCCN(c2ncnc3c2oc2ccccc23)C1` (stereo not given) displayed an RP-LC retention time of 674 s.

On to `Cc1cc(C)n(C(CC(=O)O)C(=O)O)n1` (stereo not given), for which the RP-LC retention time came out at 525 s.

In turn, `O=S(=O)(c1cccc2nsnc12)N1CCCn2nc(-c3cccnc3)cc2C1` yielded an RP-LC retention time of 627 s.

In turn, `O=C(NCC1CCN(C(=O)COc2ccccc2)CC1)c1ccc(F)c(F)c1` registered an RP-LC retention time of 758 s.

Molecule `O=C(C1=CN(c2ccc3c(c2)OCCO3)c2ccccc2S1(=O)=O)N1CCCCC1` gave an RP-LC retention time of 830 s.

Molecule `CCOc1ccc(Nc2ncccc2S(N)(=O)=O)cc1` returned an RP-LC retention time of 773 s.

As for `CCN1C(=O)COc2ccc(-c3noc(C4CCCN(S(=O)(=O)c5ccc(C)cc5)C4)n3)cc21` (stereo not given), the RP-LC retention time turned out to be 1100 s.

The molecule `COc1cccc(S(=O)(=O)N2CC(n3ccnc3)C2)c1` registered an RP-LC retention time of 601 s.

With `O=C(Cc1cccs1)Nc1nnc(SCc2nnc(-c3ccc4c(c3)OCO4)o2)s1`, the RP-LC retention time is 814 s.

`O=C(CCC1CCCN(S(=O)(=O)c2cccc(F)c2)C1)NC1CCCCC1` (stereo not given) showed an RP-LC retention time of 936 s.

The molecule `COc1ccc(S(=O)(=O)N2CCC(c3cnn(-c4cccc(C)c4)c3)CC2)cc1` came in with an RP-LC retention time of 1130 s.

`O=C(NCc1cccs1)NCC1(CO)CC1` displayed an RP-LC retention time of 592 s.

Consider `CCN(CC)C(=O)c1c2c(cn(-c3ccc(F)cc3)c1=O)C(=O)CC(C)(C)C2`, for which the RP-LC retention time came out at 759 s.

On to `CCN(Cc1ccccc1)C(=O)Cn1nc(C)c2sc(-c3ccccc3)nc2c1=O`, for which the RP-LC retention time is 1000 s.

In the case of `CC(NC(=O)Cn1cnc(-c2noc(-c3cccnc3)n2)c1)c1ccccc1` (stereo not given), the RP-LC retention time was determined as 823 s.

`Clc1cccc(CSc2ncnc3nc[nH]c23)c1` had an RP-LC retention time of 765 s.

Turning to `O=C(O)Cn1ncc2ccccc2c1=O`, the RP-LC retention time came out at 572 s.

With `COc1cccc(Cn2nc(-c3nc(-c4cccc(Cl)c4)no3)ccc2=O)c1`, the RP-LC retention time amounted to 1180 s.

Molecule `O=C(Nc1nc(-c2ccc(Cl)c(Cl)c2)cs1)c1ccc(F)c(F)c1` gave an RP-LC retention time of 1260 s.

Regarding `CN(C)c1cccc(C(=O)N2CCCN(c3cc(-c4ccc5c(c4)OCO5)[nH]n3)CC2)c1`, the RP-LC retention time stood at 680 s.

On to `Cc1ccc(CNC(=O)C2CCCN(c3nc4c(s3)c(C)nn4-c3ccc(C)cc3)C2)cc1` (stereo not given), for which the RP-LC retention time came to 1210 s.

`Cc1ccc(CN(C(=O)C(C)Oc2cccc(C)c2C)C2CCS(=O)(=O)C2)o1` (stereo not given) yielded an RP-LC retention time of 977 s.

Molecule `Cc1noc2nc(C)n(CC(=O)NCc3ccc(F)cc3)c(=O)c12` displayed an RP-LC retention time of 735 s.

The molecule `Cc1ccc(Cc2nc(-c3ccc(-n4ccnc4)nc3)no2)cc1` returned an RP-LC retention time of 759 s.

For the molecule `CCOC(=O)c1cc(S(=O)(=O)N2CCCC2C(=O)Nc2ccc(F)cc2C)cn1C` (stereo not given), the RP-LC retention time was found to be 940 s.

For the molecule `CCS(=O)(=O)c1nc2ccc(NS(=O)(=O)CCc3ccccc3)cc2s1`, the RP-LC retention time was determined as 918 s.

As for `O=C(NCCC1CCN(C(=O)Nc2cc(F)ccc2F)CC1)c1ccco1`, the RP-LC retention time was 758 s.

As for `CCCCS(=O)(=O)c1cc2c(cc1NC(=O)c1c(F)cccc1F)n(C)c(=O)n2C`, the RP-LC retention time came to 800 s.

With `O=C(NC1CCCC1)N1CCC[C@H]1c1nc(-c2ccccc2)n[nH]1`, the RP-LC retention time was found to be 697 s.

For `O=C(NCc1ccc2c(c1)OCO2)c1ccc2ncnc(N3CCCC3)c2c1`, the RP-LC retention time turned out to be 630 s.

In turn, `CCCNC(=O)c1cc2c(-c3cccs3)nn(-c3ccccc3)c2n1CC` registered an RP-LC retention time of 1100 s.

Molecule `O=C(NCc1ccc(F)cc1)C1CCN(c2nnc3c(Cl)cccn23)CC1` came in with an RP-LC retention time of 645 s.

Molecule `CCOC(=O)c1cccc(NC2=NS(=O)(=O)c3ccccc32)c1` showed an RP-LC retention time of 839 s.

`O=C(C1CCN(c2cc(N3CCCCC3)ncn2)CC1)N1CCC(N2CCCCC2)CC1`: the RP-LC retention time is 557 s.

Consider `O=C(Nc1nnc(C2CC(=O)N(c3ccccc3)C2)o1)c1ccc(C(F)(F)F)cc1` (stereo not given), for which the RP-LC retention time was 793 s.

As for `CCOc1ccc(C(=O)N2CCC(c3cc(N)on3)CC2)cc1`, the RP-LC retention time was determined as 686 s.

`Cc1ccc(Cn2cc(-c3ccncc3)cc2C(=O)N2CCN(C3CCCCC3)CC2)cc1` gave an RP-LC retention time of 602 s.

In turn, `O=C(NCC1(c2cccs2)CCOCC1)c1nc2ccccc2s1` showed an RP-LC retention time of 596 s.

In turn, `NC(=O)[C@H](Cc1ccccc1)NC(=O)[C@H](Cc1ccccc1)NC(=O)[C@@H]1CCCN1C(=O)[C@@H](N)Cc1ccc(O)cc1` had an RP-LC retention time of 678 s.

`Cc1oc2cc3oc(=O)c(CCC(=O)N4CCN(c5ccccn5)CC4)c(C)c3cc2c1C` had an RP-LC retention time of 682 s.

The molecule `COc1cccc(NC(=O)Cn2c(C(C)C)nc3c(c2=O)CN(Cc2ccccc2)CC3)c1` came in with an RP-LC retention time of 687 s.

Regarding `COc1cc(-c2cccc(Cl)c2)nc2ccc(NC(=O)Cc3cccs3)cc12`, the RP-LC retention time came out at 843 s.

Turning to `O=C(CCc1nnc2c3cc(-c4ccc(Cl)cc4)nn3ccn12)N1CCN(c2ccccn2)CC1`, the RP-LC retention time worked out at 955 s.

For the molecule `O=C(c1ccoc1)N1CCCC(OCc2nc(-c3ccncc3)no2)C1` (stereo not given), the RP-LC retention time was 668 s.

`Cc1ccc(C)c(NC(=O)C2CCN(S(=O)(=O)c3cc(-c4noc(C)n4)cs3)CC2)c1` came in with an RP-LC retention time of 953 s.

Take `Cn1c(=O)c2c(nc(Cc3ccc(N)cc3)n2C)n(C)c1=O`: the RP-LC retention time turned out to be 621 s.

Turning to `Cn1c(=O)cnc2ccc(N3CCCC3)nc21`, the RP-LC retention time is 884 s.

Consider `O=C(c1ccco1)N1CCCC(c2cc(-c3ccc(F)cc3)n[nH]2)C1` (stereo not given), for which the RP-LC retention time came out at 674 s.

In the case of `O=C(CN1C(=O)C2CCCCN2c2ccc(S(=O)(=O)N3CCCC3)cc21)NCCN1CCCC1` (stereo not given), the RP-LC retention time came to 636 s.

`CC1CCN(S(=O)(=O)c2ccc(-c3nnc(C4CC4)o3)o2)CC1` gave an RP-LC retention time of 933 s.

In turn, `CCOC(=O)c1noc2nc(C)nc(NCCCN(C)c3ccccc3)c12` had an RP-LC retention time of 897 s.

Take `O=S(=O)(c1cc(-c2noc(C3CCCC3)n2)cs1)N1CCCC1`: the RP-LC retention time amounted to 1110 s.

In turn, `CCCNC(=O)C1CCCN(c2nc3ncn(CC(=O)Nc4cc(C)ccc4C)c(=O)c3s2)C1` (stereo not given) displayed an RP-LC retention time of 703 s.

As to `COc1ccccc1-c1noc(Cn2c(=O)n(-c3ccc(C)cc3)c(=O)c3sccc32)n1`, the RP-LC retention time was 911 s.

Take `Cc1c(C(=O)N2CCSCC2)cnn1-c1ccc(-c2nc(C3CC3)no2)cn1`: the RP-LC retention time was 960 s.

`CCc1noc(NC(C)=O)c1-c1ccc(C)c(S(=O)(=O)Nc2cc(OC)c(OC)c(OC)c2)c1` gave an RP-LC retention time of 761 s.

In turn, `O=S(=O)(C1CC1)N1CCC(c2nc(-c3ccncc3)no2)C1` (stereo not given) showed an RP-LC retention time of 670 s.

Regarding `Cn1nccc1-c1cccc(-c2noc(Cc3ccc(Br)cc3)n2)c1`, the RP-LC retention time was 1150 s.

On to `O=C(NCCSc1ncc(-c2ccc(F)cc2)[nH]1)c1ccc(Br)o1`, for which the RP-LC retention time is 596 s.

As for `O=C(CN1CCOCC1)N1CC(c2nc(CCOCC3CC3)no2)C1`, the RP-LC retention time was determined as 577 s.

In the case of `COc1cc(Cl)ccc1-c1nc(-c2ccc3c(c2)oc(=O)n3C)no1`, the RP-LC retention time was found to be 1060 s.

Molecule `CCc1noc(NC(C)=O)c1-c1ccc(C)c(S(=O)(=O)NC2CCCCCCC2)c1` gave an RP-LC retention time of 959 s.

`COc1ccc(NC(=O)N2CC=C(c3cn(C(C)C)c4ncccc34)CC2)cc1` came in with an RP-LC retention time of 858 s.
